The values below are quoted from earlier work in patent publication US8524285B2, “Nutraceutical mangosteen composition” (DBC, LLC, priority 2002, dated 2013).

Data set [1] has as its target COX-1 (Homo sapiens, UniProt P23219). The note with it: constitutive isoform; Nakatani et al. (2002).
Data set [2] concerns the target T1, type B monoamine oxidase (Homo sapiens, UniProt P27338).
T1 sequence (P27338 1-520): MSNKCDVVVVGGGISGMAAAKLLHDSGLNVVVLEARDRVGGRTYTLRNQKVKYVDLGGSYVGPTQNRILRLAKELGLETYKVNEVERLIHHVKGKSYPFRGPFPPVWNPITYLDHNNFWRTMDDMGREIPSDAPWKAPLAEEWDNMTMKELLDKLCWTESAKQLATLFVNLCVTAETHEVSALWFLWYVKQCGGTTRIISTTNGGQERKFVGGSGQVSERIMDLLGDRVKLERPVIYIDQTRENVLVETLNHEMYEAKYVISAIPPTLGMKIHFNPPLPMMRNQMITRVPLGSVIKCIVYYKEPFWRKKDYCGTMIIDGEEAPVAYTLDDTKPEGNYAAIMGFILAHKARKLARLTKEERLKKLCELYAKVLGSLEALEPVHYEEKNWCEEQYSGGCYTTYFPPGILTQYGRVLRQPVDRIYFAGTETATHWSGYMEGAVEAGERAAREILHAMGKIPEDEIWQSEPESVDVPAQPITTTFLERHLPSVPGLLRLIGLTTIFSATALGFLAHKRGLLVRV
The note with it: Nakatani et al., 63 Biochemical Pharmacology 73-79 (2002).

The target in data set [3] is T2, type A monoamine oxidase (Homo sapiens, UniProt P21397).
T2 sequence (P21397 1-527): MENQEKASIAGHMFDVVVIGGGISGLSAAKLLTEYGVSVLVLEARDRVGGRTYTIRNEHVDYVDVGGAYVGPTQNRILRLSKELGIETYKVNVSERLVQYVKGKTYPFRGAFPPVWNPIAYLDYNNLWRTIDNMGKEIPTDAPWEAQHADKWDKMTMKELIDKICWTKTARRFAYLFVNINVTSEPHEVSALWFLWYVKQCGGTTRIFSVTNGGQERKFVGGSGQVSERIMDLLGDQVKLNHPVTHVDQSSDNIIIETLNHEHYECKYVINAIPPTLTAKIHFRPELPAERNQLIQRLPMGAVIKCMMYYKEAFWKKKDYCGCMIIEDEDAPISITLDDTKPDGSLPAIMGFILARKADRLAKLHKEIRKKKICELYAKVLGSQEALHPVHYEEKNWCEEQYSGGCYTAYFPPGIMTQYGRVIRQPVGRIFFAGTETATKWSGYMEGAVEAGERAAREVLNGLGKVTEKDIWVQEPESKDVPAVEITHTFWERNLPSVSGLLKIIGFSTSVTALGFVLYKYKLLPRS
The following applies: Nakatani et al., 63 Biochemical Pharmacology 73-79 (2002).

Data set [4] has as its system prostaglandin E2 synthesis. The note with it: Nakatani et al. (2002).

Chain of COX-1 (P23219 24-599): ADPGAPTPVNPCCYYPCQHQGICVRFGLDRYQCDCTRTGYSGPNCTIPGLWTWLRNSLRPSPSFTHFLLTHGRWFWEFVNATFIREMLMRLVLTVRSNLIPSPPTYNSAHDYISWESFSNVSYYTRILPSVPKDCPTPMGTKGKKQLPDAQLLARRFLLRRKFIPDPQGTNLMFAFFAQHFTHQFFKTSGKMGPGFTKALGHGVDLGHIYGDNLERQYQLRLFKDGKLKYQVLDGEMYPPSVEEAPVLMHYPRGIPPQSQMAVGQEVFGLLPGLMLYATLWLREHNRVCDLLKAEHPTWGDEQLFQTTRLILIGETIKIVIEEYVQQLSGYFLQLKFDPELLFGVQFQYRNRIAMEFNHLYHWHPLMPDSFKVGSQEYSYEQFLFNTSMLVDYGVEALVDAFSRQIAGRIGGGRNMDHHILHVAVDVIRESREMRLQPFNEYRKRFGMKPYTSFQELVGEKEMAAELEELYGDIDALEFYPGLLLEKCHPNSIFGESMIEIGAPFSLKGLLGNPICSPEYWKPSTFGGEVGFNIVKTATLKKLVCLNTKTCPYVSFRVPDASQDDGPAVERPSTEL

`CC(C)=CCc1c(O)cc2oc3cc(O)c(O)c(CC=C(C)C)c3c(=O)c2c1O` [γ-mangostin]: in data set [1], the “inhibition of COX-1 activity” value is reported as “directly inhibit”. Further, the “inhibition of type B monoamine oxidase” value in data set [2] was “inhibits”. Besides, in data set [3], the “inhibition of type A monoamine oxidase” value is listed as “inhibits”. Moreover, the “inhibition of prostaglandin E2 synthesis” value in data set [4] was “inhibits”.
